Test results taken from PubChem BioAssay (NCI).
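The compound was tested at five concentrations on cells cultured in 96-well plates, with a 48-hour exposure period. The concentration for 50% growth inhibition is given as GI50. TGI denotes the concentration required for complete inhibition of growth.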

How the values were obtained:
Assay in all cases: DTP human tumour cell line panel, 48 h
[1] = system: CCRF-CEM leukemia
[2] = system: SF-295 CNS
[3] = system: UACC-62 melanoma
[4] = system: IGROV1 ovarian
[5] = system: MDA-MB-231 breast
[6] = system: SNB-75 CNS
[7] = system: K-562 leukemia
[8] = system: HCT-15 colon
[9] = system: LOX IMVI melanoma
[10] = system: SF-539 CNS
[11] = system: SK-MEL-2 melanoma
[12] = system: HCC-2998 colon
[13] = system: SK-MEL-5 melanoma
[14] = system: 786-0 renal
[15] = system: U251 CNS
[16] = system: HOP-62 NSCLC
[17] = system: MDA-MB-435
[18] = system: COLO 205 colon
[19] = system: A549 NSCLC
[20] = system: OVCAR-8 ovarian
[21] = system: HS 578T breast
[22] = system: CAKI-1 renal
[23] = system: SW-620 colon
[24] = system: NCI-H522 lung
[25] = system: A498 renal
[26] = system: SK-MEL-28 melanoma
[27] = system: ACHN renal
[28] = system: NCI-H23 lung
[29] = system: MALME-3M melanoma
[30] = system: MCF7 breast
[31] = system: NCI/ADR-RES ovarian
[32] = system: BT-549 breast
[33] = system: DU-145 prostate
[34] = system: HOP-92 NSCLC
[35] = system: MOLT-4 leukemia
[36] = system: RXF 393 renal
[37] = system: UACC-257 melanoma
[38] = system: M14 melanoma
[39] = system: SK-OV-3 ovarian
[40] = system: SNB-19 CNS
[41] = system: T-47D breast
[42] = system: OVCAR-4 ovarian
[43] = system: UO-31 renal
[44] = system: NCI-H226 lung
[45] = system: HCT-116 colon
[46] = system: OVCAR-3 ovarian
[47] = system: HT29 colon
[48] = system: SF-268 CNS
[49] = system: TK-10 renal
[50] = system: NCI-H460 lung
[51] = system: EKVX NSCLC
[52] = system: PC-3 prostate
[53] = system: OVCAR-5 ovarian
[54] = system: HL-60(TB) leukemia
[55] = system: SN12C renal
[56] = system: RPMI-8226 leukemia
[57] = system: KM12 colon

Q: What does the source list for Cc1nn(-c2ccccc2)c(-n2ccnc2)c1/C=N/Nc1nc(-c2ccc(Cl)c(Cl)c2)cs1?
A: GI50 [1]: 3.96 µM; TGI [1]: > 100 µM; GI50 [2]: 5.21 µM; TGI [2]: 20.3 µM; GI50 [3]: 7.6 µM; TGI [3]: 31.9 µM; GI50 [4]: 6.07 µM; TGI [4]: 26.2 µM; GI50 [5]: 2.49 µM; TGI [5]: 11.2 µM; GI50 [6]: 1.66 µM; TGI [6]: 5.35 µM; GI50 [7]: 2.49 µM; TGI [7]: > 100 µM; GI50 [8]: 4.09 µM; TGI [8]: > 100 µM; GI50 [9]: 3.01 µM; TGI [9]: 13.4 µM; GI50 [10]: 3.66 µM; TGI [10]: 14.2 µM; GI50 [11]: 17.5 µM; TGI [11]: 50.8 µM; GI50 [12]: 5.1 µM; TGI [12]: 46.8 µM; GI50 [13]: 2.54 µM; TGI [13]: 12.9 µM; GI50 [14]: 3.21 µM; TGI [14]: 13.3 µM; GI50 [15]: 4.28 µM; TGI [15]: 20.7 µM; GI50 [16]: 5.92 µM; TGI [16]: 29.7 µM; GI50 [17]: 84.7 µM; TGI [17]: > 100 µM; GI50 [18]: 4.46 µM; TGI [18]: > 100 µM; GI50 [19]: 2.72 µM; TGI [19]: 10 µM; GI50 [20]: 3.44 µM; TGI [20]: 22.3 µM; GI50 [21]: 2.95 µM; TGI [21]: 28.9 µM; GI50 [22]: 5.55 µM; TGI [22]: 20 µM; GI50 [23]: 3.36 µM; TGI [23]: 53.4 µM; GI50 [24]: 13.4 µM; TGI [24]: 68.1 µM; GI50 [25]: 7.98 µM; TGI [25]: 35.9 µM; GI50 [26]: 3.89 µM; TGI [26]: 19.7 µM; GI50 [27]: 3.97 µM; TGI [27]: 16.9 µM; GI50 [28]: 1.94 µM; TGI [28]: 9.9 µM; GI50 [29]: 1.95 µM; TGI [29]: 9.21 µM; GI50 [30]: 2.17 µM; TGI [30]: 6.37 µM; GI50 [31]: 2.31 µM; TGI [31]: 9.02 µM; GI50 [32]: 5.88 µM; TGI [32]: 45 µM; GI50 [33]: 3.15 µM; TGI [33]: 13.3 µM; GI50 [34]: 0.214 µM; TGI [34]: 3.49 µM; GI50 [35]: 7.33 µM; TGI [35]: > 100 µM; GI50 [36]: 2.29 µM; TGI [36]: 6.12 µM; GI50 [37]: 17.7 µM; TGI [37]: 85.3 µM; GI50 [38]: 4.11 µM; TGI [38]: 30.6 µM; GI50 [39]: 23.5 µM; TGI [39]: 69.4 µM; GI50 [40]: 16.2 µM; TGI [40]: 92.3 µM; GI50 [41]: 6.65 µM; TGI [41]: > 100 µM; GI50 [42]: 1.48 µM; TGI [42]: 3.76 µM; GI50 [43]: 2.3 µM; TGI [43]: 21.8 µM; GI50 [44]: 1.91 µM; TGI [44]: 10.8 µM; GI50 [45]: 1.9 µM; TGI [45]: 4.75 µM; GI50 [46]: 1.68 µM; TGI [46]: 3.44 µM; GI50 [47]: 4.99 µM; TGI [47]: > 100 µM; GI50 [48]: 9.37 µM; TGI [48]: 37.5 µM; GI50 [49]: 20.3 µM; TGI [49]: 63.2 µM; GI50 [50]: 3.04 µM; TGI [50]: 10.7 µM; GI50 [51]: 5.7 µM; TGI [51]: 36.5 µM; GI50 [52]: 3.02 µM; TGI [52]: 18.7 µM; GI50 [53]: 14.9 µM; TGI [53]: 57.6 µM; GI50 [54]: 6.91 µM; TGI [54]: > 100 µM; GI50 [55]: 4.2 µM; TGI [55]: 20.1 µM; GI50 [56]: 0.65 µM; TGI [56]: 8.83 µM; GI50 [57]: 7.89 µM; TGI [57]: > 100 µM
